Results: patent US7851474B2, “Dipiperazinyl ketones and related analogues” (Neurogen Corporation, priority 2005, dated 2010)

biological target: T1, chimeric human H3 receptor (Homo sapiens, UniProt Q9Y5N1, E19D); assay: Chimeric human H3 receptor GTP binding assay (agonist-stimulated GTP-gamma35S binding, Example 7); format: biochemical; conditions: Table II "Ki", symbol "*": Ki in the assay of Example 7; read-out: Ki
T1 construct: made in house; host or cells: Sf9 insect cells (baculovirus infection); P2 membrane preparation
Method in brief: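 Sf9 membranes co-expressing the chimeric receptor and heterotrimeric G-protein subunits, 35 μg protein per tube, in pH 7.4 Tris buffer with 10 μM GDP. Test compounds at 10^−10 to 10^−6 M with 1 μM histamine, 60 min at room temperature. Filter-bound GTP-gamma^35S read by scintillation; IC50 from non-linear regression of dose-response curves.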

T1 sequence (Q9Y5N1 with tags, fused parts or gaps E19D): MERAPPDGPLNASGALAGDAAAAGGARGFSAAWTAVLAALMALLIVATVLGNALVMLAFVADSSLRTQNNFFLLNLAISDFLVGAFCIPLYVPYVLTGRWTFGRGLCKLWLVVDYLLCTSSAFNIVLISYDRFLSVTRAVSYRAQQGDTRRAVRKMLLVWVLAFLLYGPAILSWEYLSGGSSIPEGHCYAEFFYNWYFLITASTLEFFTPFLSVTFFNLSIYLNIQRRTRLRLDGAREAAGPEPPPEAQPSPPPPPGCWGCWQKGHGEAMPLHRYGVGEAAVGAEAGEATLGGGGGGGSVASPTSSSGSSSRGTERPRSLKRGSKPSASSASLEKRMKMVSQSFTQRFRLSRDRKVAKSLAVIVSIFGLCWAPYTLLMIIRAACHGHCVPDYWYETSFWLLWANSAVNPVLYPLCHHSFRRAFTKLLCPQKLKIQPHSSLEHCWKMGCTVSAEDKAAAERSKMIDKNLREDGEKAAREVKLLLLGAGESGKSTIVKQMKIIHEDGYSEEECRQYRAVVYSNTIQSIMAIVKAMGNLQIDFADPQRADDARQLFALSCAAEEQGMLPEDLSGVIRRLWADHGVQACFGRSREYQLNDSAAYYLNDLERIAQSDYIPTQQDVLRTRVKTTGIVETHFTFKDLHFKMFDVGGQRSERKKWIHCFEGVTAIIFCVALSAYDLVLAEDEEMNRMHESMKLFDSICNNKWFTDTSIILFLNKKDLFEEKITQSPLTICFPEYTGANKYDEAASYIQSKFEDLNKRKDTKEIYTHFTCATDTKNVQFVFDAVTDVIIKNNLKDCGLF

| Structure (SMILES) | Ki |
| --- | --- |
| CCC(C)N1CCN(C(=O)CN2CCN(c3cccc(F)c3)CC2)CC1 (stereo not shown) [Compound 874, 1-sec-butyl-4-{[4-(3-fluorophenyl)piperazin-1-yl]acetyl}piperazine] | < 1 µM |
| CCC(C)N1CCN(C(=O)CN2CCN(c3cccc(OC)c3)CC2)CC1 (stereo not shown) [Compound 875, 1-sec-butyl-4-{[4-(3-methoxyphenyl)piperazin-1-yl]acetyl}piperazine] | < 1 µM |
| CCC(C)N1CCN(C(=O)CN2CCN(c3cccc(C)c3)CC2)CC1 (stereo not shown) [Compound 876, 1-sec-butyl-4-{[4-(3-methylphenyl)piperazin-1-yl]acetyl}piperazine] | < 1 µM |
| CCC(C)N1CCN(C(=O)CN2CCN(c3ccc(Cl)c(OC)c3)CC2)CC1 (stereo not shown) [Compound 877, 1-sec-butyl-4-{[4-(4-chloro-3-methoxyphenyl)piperazin-1-yl]acetyl}piperazine] | < 1 µM |
| CCC(C)N1CCN(C(=O)CN2CCN(c3ccc(Cl)c(C)c3)CC2)CC1 (stereo not shown) [Compound 878, 1-sec-butyl-4-{[4-(4-chloro-3-methylphenyl)piperazin-1-yl]acetyl}piperazine] | < 1 µM |
| CCC(C)N1CCN(C(=O)CN2CCN(c3ccc(Cl)cc3)CC2)CC1 (stereo not shown) [Compound 879, 1-sec-butyl-4-{[4-(4-chlorophenyl)piperazin-1-yl]acetyl}piperazine] | < 1 µM |
| CCC(C)N1CCN(C(=O)CN2CCN(c3ccc(F)cc3)CC2)CC1 (stereo not shown) [Compound 880, 1-sec-butyl-4-{[4-(4-fluorophenyl)piperazin-1-yl]acetyl}piperazine] | < 1 µM |
| CCC(C)N1CCN(C(=O)CN2CCN(c3ccc(OC)cc3)CC2)CC1 (stereo not shown) [Compound 881, 1-sec-butyl-4-{[4-(4-methoxyphenyl)piperazin-1-yl]acetyl}piperazine] | < 1 µM |
| CCC(C)N1CCN(C(=O)CN2CCN(c3ccc(C)cc3)CC2)CC1 (stereo not shown) [Compound 882, 1-sec-butyl-4-{[4-(4-methylphenyl)piperazin-1-yl]acetyl}piperazine] | < 1 µM |
| CCC(C)N1CCN(C(=O)CN2CCN(c3ccc([N+](=O)[O-])cc3)CC2)CC1 (stereo not shown) [Compound 883, 1-sec-butyl-4-{[4-(4-nitrophenyl)piperazin-1-yl]acetyl}piperazine] | < 1 µM |
| CCC(C)N1CCN(C(=O)CN2CCN(c3cc(Cl)ccc3OC)CC2)CC1 (stereo not shown) [Compound 884, 1-sec-butyl-4-{[4-(5-chloro-2-methoxyphenyl)piperazin-1-yl]acetyl}piperazine] | < 1 µM |
| CCC(C)N1CCN(C(=O)CN2CCN(c3cc(Cl)ccc3C)CC2)CC1 (stereo not shown) [Compound 885, 1-sec-butyl-4-{[4-(5-chloro-2-methylphenyl)piperazin-1-yl]acetyl}piperazine] | < 1 µM |
| O=C(CN1CCN(c2cnc(-c3ccc4c(c3)OCO4)cn2)CC1)N1CCN(C2CCC2)CC1 [Compound 896, 2-(1,3-benzodioxol-5-yl)-5-{4-[2-(4-cyclobutylpiperazin-1-yl)-2-oxoethyl]piperazin-1-yl}pyrazine] | < 1 µM |
| Cc1ccc(F)c(-c2cnc(N3CCN(CC(=O)N4CCN(C5CCC5)CC4)CC3)cn2)c1Cl [Compound 897, 2-(2-chloro-6-fluoro-3-methylphenyl)-5-{4-[2-(4-cyclobutylpiperazin-1-yl)-2-oxoethyl]piperazin-1-yl}pyrazine] | < 1 µM |
| O=C(CN1CCN(c2cnc(-c3ccccc3Cl)cn2)CC1)N1CCN(C2CCC2)CC1 [Compound 898, 2-(2-chlorophenyl)-5-{4-[2-(4-cyclobutylpiperazin-1-yl)-2-oxoethyl]piperazin-1-yl}pyrazine] | < 1 µM |
| O=C(CN1CCN(c2cnc(-c3ccc(F)c(Cl)c3)cn2)CC1)N1CCN(C2CCC2)CC1 [Compound 899, 2-(3-chloro-4-fluorophenyl)-5-{4-[2-(4-cyclobutylpiperazin-1-yl)-2-oxoethyl)piperazin-1-yl}pyrazine] | < 1 µM |
| O=C(CN1CCN(c2cnc(-c3cccc(Cl)c3)cn2)CC1)N1CCN(C2CCC2)CC1 [Compound 900, 2-(3-chlorophenyl)-5-{4-[2-(4-cyclobutylpiperazin-1-yl)-2-oxoethyl]piperazin-1-yl}pyrazine] | < 1 µM |
| CCCCc1ccc(-c2cnc(N3CCN(CC(=O)N4CCN(C5CCC5)CC4)CC3)cn2)cc1 [Compound 901, 2-(4-butylphenyl)-5-{4-[2-(4-cyclobutylpiperazin-1-yl)-2-oxoethyl]piperazin-1-yl}pyrazine] | < 1 µM |
| O=C(CN1CCN(c2cnc(-c3ccc(Cl)cc3F)cn2)CC1)N1CCN(C2CCC2)CC1 [Compound 902, 2-(4-chloro-2-fluorophenyl)-5-{4-[2-(4-cyclobutylpiperazin-1-yl)-2-oxoethyl]piperazin-1-yl}pyrazine] | < 1 µM |

| Structure (SMILES) | Ki |
| --- | --- |
| O=C(CN1CCN(c2cnc(-c3ccc(Cl)c(F)c3)cn2)CC1)N1CCN(C2CCC2)CC1 [Compound 903, 2-(4-chloro-3-fluorophenyl)-5-{4-[2-(4-cyclobutylpiperazin-1-yl)-2-oxoethyl]piperazin-1-yl}pyrazine] | < 1 µM |
| O=C(CN1CCN(c2cnc(-c3ccc(Cl)cc3)cn2)CC1)N1CCN(C2CCC2)CC1 [Compound 904, 2-(4-chlorophenyl)-5-{4-[2-(4-cyclobutylpiperazin-1-yl)-2-oxoethyl]piperazin-1-yl}pyrazine] | < 1 µM |
| O=C1CCc2cc(N3CCC(C(=O)OCC(=O)N4CCN(C5CCC5)CC4)CC3)ccc21 [Compound 905, 2-(4-cyclobutylpiperazin-1-yl)-2-oxoethyl 1-(1-oxo-2,3-dihydro-1H-inden-5-yl)piperidine-4-carboxylate] | < 1 µM |
| O=C(OCC(=O)N1CCN(C2CCC2)CC1)N1C=CC2(CC1)c1ccccc1C(=O)N2Cc1ccccc1 (stereo not shown) [Compound 906, 2-(4-cyclobutylpiperazin-1-yl)-2-oxoethyl 2-benzyl-3-oxo-2,2′,3,3′-tetrahydro-1′H-spiro[isoindole-1,4′-pyridine]-1′-carboxylate] | < 1 µM |
| O=C1CCc2cc(N3CCC(C(=O)OCC(=O)N4CCN(C5CCCC5)CC4)CC3)ccc21 [Compound 907, 2-(4-cyclopentylpiperazin-1-yl)-2-oxoethyl 1-(1-oxo-2,3-dihydro-1H-inden-5-yl)piperidine-4-carboxylate] | < 1 µM |
| CC(=O)c1ccc(N2CCC(C(=O)OCC(=O)N3CCN(C4CCCC4)CC3)CC2)cc1 [Compound 908, 2-(4-cyclopentylpiperazin-1-yl)-2-oxoethyl 1-(4-acetylphenyl)piperidine-4-carboxylate] | < 1 µM |
| O=C1CCc2cc(N3CCN(C(=O)OCC(=O)N4CCN(C5CCCC5)CC4)CC3)ccc21 [Compound 909, 2-(4-cyclopentylpiperazin-1-yl)-2-oxoethyl 4-(1-oxo-2,3-dihydro-1H-inden-5-yl)piperazine-1-carboxylate] | < 1 µM |
| CC(C)(C)c1ccc(-c2cnc(N3CCN(CC(=O)N4CCN(C5CCC5)CC4)CC3)cn2)cc1 [Compound 910, 2-(4-tert-butylphenyl)-5-{4-[2-(4-cyclobutylpiperazin-1-yl)-2-oxoethyl]piperazin-1-yl}pyrazine] | < 1 µM |
| COc1ccc(Cl)cc1-c1cnc(N2CCN(CC(=O)N3CCN(C4CCC4)CC3)CC2)cn1 [Compound 911, 2-(5-chloro-2-methoxyphenyl)-5-{4-[2-(4-cyclobutylpiperazin-1-yl)-2-oxoethyl]piperazin-1-yl}pyrazine] | < 1 µM |
| O=C(CN1CCN(c2cnc(-c3cc(C(F)(F)F)ccc3Cl)cn2)CC1)N1CCN(C2CCC2)CC1 [Compound 912, 2-[2-chloro-5-(trifluoromethyl)phenyl]-5-{4-[2-(4-cyclobutylpiperazin-1-yl)-2-oxoethyl]piperazin-1-yl}pyrazine] | < 1 µM |
| O=C(CN1CCN(c2cnc(-c3cc(C(F)(F)F)cc(C(F)(F)F)c3)cn2)CC1)N1CCN(C2CCC2)CC1 [Compound 913, 2-[3,5-bis(trifluoromethyl)phenyl]-5-{4-[2-(4-cyclobutylpiperazin-1-yl)-2-oxoethyl]piperazin-1-yl}pyrazine] | < 1 µM |
| O=C(CN1CCN(c2cnc(-c3ccc(Cl)c(C(F)(F)F)c3)cn2)CC1)N1CCN(C2CCC2)CC1 [Compound 914, 2-[4-chloro-3-(trifluoromethyl)phenyl]-5-{4-[2-(4-cyclobutylpiperazin-1-yl)-2-oxoethyl]piperazin-1-yl}pyrazine] | < 1 µM |
| O=C(CN1CCN(c2nc3ccccc3n2Cc2ccc(F)cc2)CC1)N1CCN(C2CCC2)CC1 [Compound 915, 2-{4-[2-(4-cyclobutylpiperazin-1-yl)-2-oxoethyl]piperazin-1-yl}-1-(4-fluorobenzyl)-1H-benzimidazole] | < 1 µM |
| O=C(CN1CCN(c2ncc(F)cn2)CC1)N1CCN(C2CCC2)CC1 [Compound 916, 2-{4-[2-(4-cyclobutylpiperazin-1-yl)-2-oxoethyl]piperazin-1-yl}-5-fluoropyrimidine] | < 1 µM |
| O=C(CN1CCN(c2cnc(-c3ccncc3)cn2)CC1)N1CCN(C2CCC2)CC1 [Compound 917, 2-{4-[2-(4-cyclobutylpiperazin-1-yl)-2-oxoethyl]piperazin-1-yl}-5-pyridin-4-ylpyrazine] | < 1 µM |
| O=C(CN1CCN(c2cnc(-c3ccccc3)cn2)CC1)N1CCN(C2CCC2)CC1 [Compound 918, 2-{4-[2-(4-cyclobutylpiperazin-1-yl)-2-oxoethyl]piperazin-1-yl}-5-phenylpyrazine] | < 1 µM |
| O=C(CN1CCN(c2cnc(-c3ccc(F)cc3)cn2)CC1)N1CCN(C2CCC2)CC1 [Compound 919, 2-{4-[2-(4-cyclobutylpiperazin-1-yl)-2-oxoethyl]piperazin-1-yl}-5-(4-fluorophenyl)pyrazine] | < 1 µM |
| Cc1ccc(-c2cnc(N3CCN(CC(=O)N4CCN(C5CCC5)CC4)CC3)cn2)c(F)c1 [Compound 920, 2-{4-[2-(4-cyclobutylpiperazin-1-yl)-2-oxoethyl]piperazin-1-yl}-5-(2-fluoro-4-methylphenyl)pyrazine] | < 1 µM |
